Measured values from doi:10.1101/2024.06.14.598950v1 (biorxiv, 2024).

What was measured:
Assay in all cases: DTNB spectrophotometric assay, nonlinear regression
Assay type in all cases: biochemical, Brassica juncea
Conditions in all cases: 30 °C
Bju.IPMS1-A1 = test system: Bju.IPMS1-A1
Bju.IPMS1-B2 = test system: Bju.IPMS1-B2
Bju.IPMS1-B1 = test system: Bju.IPMS1-B1
Bju.IPMS1-A2 = test system: Bju.IPMS1-A2

Km (Bju.IPMS1-A1; 0.5 mM acetyl-CoA) [µM] | Km (Bju.IPMS1-B2; 0.5 mM acetyl-CoA) [µM] | Km (Bju.IPMS1-B1; 0.5 mM acetyl-CoA) [µM] | Km (Bju.IPMS1-A2; 0.5 mM acetyl-CoA) [µM] | Km (Bju.IPMS1-A1; 1 mM 2-oxoisovalerate) [µM] | Km (Bju.IPMS1-B2; 1 mM 2-oxoisovalerate) [µM] | Km (Bju.IPMS1-B1; 1 mM 2-oxoisovalerate) [µM] | Km (Bju.IPMS1-A2; 1 mM 2-oxoisovalerate) [µM] | SMILES
158 ± 35.4 | 231 ± 47.1 | 217 ± 67.2 | 144 ± 40.9 |  |  |  |  | CC(C)C(=O)C(=O)O [2-oxoisovalerate, 3-methyl-2-oxobutanoate]
 |  |  |  | 770 ± 211 | 532 ± 91.9 | 1260 ± 369 | 406 ± 75.9 | CC(=O)SCCNC(=O)CCNC(=O)[C@H](O)C(C)(C)COP(=O)(O)OP(=O)(O)OC[C@H]1O[C@@H](n2cnc3c(N)ncnc32)[C@H](O)[C@@H]1OP(=O)(O)O [acetyl-CoA]
